Data taken from patent EP0414895A1, “OROTATE OF $g(a)-AMINO-$g(b)-PHENYL-BUTYRIC ACID” (NAUCHNO-PROIZVODSTVENNOE OBIEDINENIE "BIOLAR", priority 1989, dated 1990).

Columns and labels:
Type in all cases: in vivo
[1] = test system: Mäuse; assay: Hypoxia in barochamber (11000 m), survival
Experimental: Nach einer der Methoden wurden die Mäuse in der Barokammer untergebracht, die für die Höhe von II000 m über dem Meeresspiegel gehoben wurde. Die Hebung wurde mit einer Geschwindigkeit von 50 m/s verwirklicht. Der atmosphärische Tiefdruck wurde mit Hilfe der elektrischen Vakuumpumpe geschaffen.
Die beanspruchte Verbindung, Natriumoxybutyrat und Pyrazetam wurden 60 min vor dem Versuch enteral eingeführt. Der Schutzeffekt wurde nach der Überlebensdauer eingeschätzt. Die Angaben sind in Tabelle I0 angeführt.

[2] = test system: Mäuse; assay: Hemic hypoxia by intraperitoneal Natriumnitrit, survival; details: Natriumnitrit 200 mg/kg i.p. 15 min after compound
Experimental: Die gemische Hypoxie wurde durch die intraperitoneale und subkutane Verabreichung von Natriumnitrit in einer Dosis von 200 mg/kg den Gruppen zu I0 […] I5 min nach der Einführung der Prüfverbindungen erzeugt. Die Angaben sind in der Tabelle I2 (bei der intraperitonealen Einführung von Natriumnitrit) und Tabelle I3 (bei der subkutanen Einführung von Natriumnitrit) angeführt.

[3] = test system: Mäuse; assay: Motor and orientation activity in photoelectric actometer; details: counted 60 min from 10 min after dosing
From the text: Zur Bestimmung der sedativen Wirksamkeit wurde die motorische und Orientierungsaktivität und die motorische Fähigkeit in Versuchen an Mäusen und Ratten untersucht.
Den Versuchstieren wurden die beanspruchte Verbindung, γ -Amino- β -phenylbuttersäurehydrochlorid und Pyrazetam eingeführt. Als Kontrolle diente die physiologische Lösung (0,9%ige NaCl-Lösung). Die Untersuchungen wurden an I0 bis I2 erwachsenen Tieren (Mäuse, Ratten) durchgeführt.
Bei der Bestimmung der motorischen und Orientierungsaktivität wurde jede Maus in einer Einzelkamner des photoelektrischen Aktometers untergebracht. Die motorische und Orientierungsaktivität wurde nach der Zahl der Impulse bestimmt, die beim Berühren der Aktometerkontakte durch das Tier entstanden. Das Zählen der Im pulse wurde I0 min nach der intraperitonealen Einführung der genannten Verbindungen begonnen und dauerte innerhalb von 60 min. Die Angaben sind in der Tabelle I angeführt.

[4] = test system: Mäuse; assay: Thresholds of emotional reactivity and aggressiveness on electric pain stimulation, mice
From the text: Es wurde auch die emotionelle Aktivität und Aggressivität der Tiere auf dem Wege der elektrischen Schmerzreizung untersucht.
In einer Kammer von 20 x 20 x 25 cm Ausmass, deren Boden - ein Metallgitter aus Stangen darstellt, wurde ein Paar Tiere untergebracht (männliche Mäuse) und es wurde der Wechselstrom durchgelassen. Die Spannung wurde dosenartig auf 5 V solange erhöht, bis der Strom das Piepsen (die Schwelle der emotionellen Reaktivität) und die Schlägerei der Tiere (die Schwelle der Aggressivität) auslöste. Jede Spannungsgrösse wurde innerhalb von 5 sec zweimal in einem Zeitabstand von 20 bis 50 Sekunden aufrechterhalten. Die Kontrolle des Benehmens der Tiere begann man I0 Minuten nach der Einführung der oben erwähnten Verbindungen. Die Angaben sind in Tabellen 3, 4 angeführt.

[5] = test system: Ratten; assay: Thresholds of emotional reactivity and aggressiveness on electric pain stimulation, rats; details: 100,0 mg/kg
[6] = test system: Mäuse; assay: Phenamin-induced hypermotility in actometer; details: 500 mg/kg + Phenamin 5 mg/kg i.p. 10 min later
Experimental: Eis wurde die Wirkung der beanspruchten Verbindung auf den durch Phenamin ausgelöston Effekt der Veränderung der Hypermotorik untersucht. Phenamin wurde den Mäusen intraperitoneal in Dosen von 3 und 5 mg/kg I0 Minuten nach der enteralen oder intraperitonealen Einführung der beanspruchten Verbindung und des Pyrazetams eingeführt. Die Tiere wurden in der Kammer des photoelektrischen Aktometers untergebracht. Die motorische Aktivität wurde nach der Zahl der Impulse innerhalb von 60 Minuten bestimmt. Die Angaben sind in der Tabelle 6 angeführt.

[7] = test system: Mäuse; assay: Hypoxia in hermetically closed vessel, survival; details: closed vessel 80 cm³
From the text: Nach der zweiten Methode wurden die Mäuse in einem hermetisch verschlossenen Gefäss von 80 cm³ Inhalt untergebracht, dabei wurde die Luft nicht abgesaugt, und es wurden keine CO₂-Sorptionsmittel zugegeben. Die Prüfverbindungen wurden I Stunde vor dem Beginn des Versuchs intraperitoneal eingeführt (siehe Tabelle II).

[8] = test system: Ratten; assay: Natriumäthaminal intoxication, sleep duration, rats; details: 500 mg/kg single + Natriumäthaminal 100 mg/kg i.p.
Experimental: Ausserdem wurde die Wirkung der beanspruchten Verbindung auf die durch Natriumäthaminal erzeugte Intoxikation untersucht. Die Versuche wurden an männlichen Mäusen und Ratten in Gruppen zu 8 bis I0 Tieren angestellt. Natriumäthaminal wurde intraperitoneal in einner Dosis von I00 mg/kg I5 min nach der enteralen Verabreichung der beanspruchten Verbindung oder der Kontrollarzneimittel eingeführt. Es wurde die einmalige und chronische Einwirkung (während I2 bis I4 Tage einmal täglich) von der neuen Verbindung, γ -Amino- β - -phenylbuttersäurehydrochlorid und Pyrazetam untersucht. Es wurde die Dauer der Seitenlage - des Schlafs der Tiere bestimmt. Die Ergebnisse dieser Untersuchung sind in Tabelle 23 (für Mäuse) und 24 (für Ratten) angeführt.

[9] = 100,0 mg/kg enteral 60 min before

## O=C(O)CCCO [Natriumoxybutyrat]
[1]; [9]
  Überlebensdauer: 7,1±2,3 min
[1]; 200,0 mg/kg enteral 60 min before
  Überlebensdauer: 10,1±1,9 min
[2]; 100,0 mg/kg
  Überlebensdauer: 28,4±2,8 min
[2]; 200,0 mg/kg
  Überlebensdauer: 43,0±2,3 min

## NC(=O)CN1CCCC1=O [Pyrazetam, I-Karbamidomethylpyrrolidon-2]
[3]; 100 mg/kg i.p.
  Anzahl der Impulse im Aktometer: 342±18
[3]; 500 mg/kg i.p.
  Anzahl der Impulse im Aktometer: 338±24
[3]; 1000 mg/kg i.p.
  Anzahl der Impulse im Aktometer: 288±28
[4]; 100 mg/kg
  Spannung in V, Schwelle der Agressivität: 28,4±2,4 V
[4]; 1000 mg/kg
  Spannung in V, Schwelle der Agressivität: 26,7±2,5 V
  Spannung in V, Schwelle der emotionellen Reaktivität: 20,7±2,4 V
[5]
  Spannung in V, die Schwelle der emotionnellen Reaktivität: 25,7±0,8 V
[6]
  Anzahl der Impulse im Aktometer innerhalb von 60 min: 1872±66
[1]; [9]
  Überlebensdauer: 3,4±0,6 min
[1]; 500,0 mg/kg enteral 60 min before
  Überlebensdauer: 5,5±1,8 min
[1]; 1000,0 mg/kg enteral 60 min before
  Überlebensdauer: 7,2±1,4 min
[7]; 100,0 mg/kg i.p. 1 h before
  Überlebensdauer: 9,6±1,2 min
[7]; 500,0 mg/kg i.p. 1 h before
  Überlebensdauer: 11,8±2,1 min
[7]; 1000,0 mg/kg i.p. 1 h before
  Überlebensdauer: 13,6±1,8 min
[2]; 100,0 mg/kg
  Überlebensdauer: 26,7±2,2 min
[2]; 500,0 mg/kg
  Überlebensdauer: 34,2±3,6 min
[2]; 1000,0 mg/kg
  Überlebensdauer: 38,8±4,2 min
[8]
  Schlafdauer: 204,6±21 min
